IC50 data for 17 compounds are collected here from paper PMC5372089, “Synthesis and biological evaluation of novel ursolic acid analogues as potential α-glucosidase inhibitors” (Scientific Reports, 2017).

Broadly, the IC50 is the concentration at which inhibition is half-maximal.

The target of one assay is T1, α-glucosidase from baker's yeast (Saccharomyces cerevisiae, UniProt P53341). In words: In vitro α-glucosidase inhibition assay (PNPG substrate, absorbance at 405 nm). The class given is biochemical.
T1 sequence (P53341 whole entry): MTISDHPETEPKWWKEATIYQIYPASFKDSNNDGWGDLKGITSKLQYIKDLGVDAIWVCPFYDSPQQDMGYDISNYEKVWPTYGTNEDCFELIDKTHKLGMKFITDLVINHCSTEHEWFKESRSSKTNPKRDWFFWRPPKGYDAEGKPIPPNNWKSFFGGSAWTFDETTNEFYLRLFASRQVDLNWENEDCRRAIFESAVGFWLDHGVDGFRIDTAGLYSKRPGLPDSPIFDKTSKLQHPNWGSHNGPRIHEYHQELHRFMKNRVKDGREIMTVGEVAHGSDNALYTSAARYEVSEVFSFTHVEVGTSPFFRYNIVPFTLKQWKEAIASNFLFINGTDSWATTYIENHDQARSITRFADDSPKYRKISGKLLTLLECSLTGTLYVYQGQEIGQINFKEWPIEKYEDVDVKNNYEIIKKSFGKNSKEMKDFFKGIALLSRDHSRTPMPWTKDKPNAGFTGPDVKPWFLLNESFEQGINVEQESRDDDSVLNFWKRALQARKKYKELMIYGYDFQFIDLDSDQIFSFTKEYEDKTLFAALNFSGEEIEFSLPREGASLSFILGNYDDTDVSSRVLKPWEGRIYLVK
Settings: not given
On the procedure:
In this assay, α-glucosidase from baker’s yeast has been selected and used in this model according to the procedure described in the previous study with a slight modification. The activity of α-glucosidase was determined by monitoring p-nitrophenol (PNP) released from p-nitrophenol-α-D-glycopyranoside (PNPG) at 405 nm. All examined samples of UA analogues were dissolved in DMSO to generate the stock solution, with the concentrations ranging from 5 μM to 4000 μM. During the enzyme inhibitory assay, each sample’s stock solution was diluted with 0.1 M phosphate buffer solution (pH = 6.8), and the final concentration of enzyme solution was 0.1 U/mL. Then 10 min pre-incubation at 37 °C was conducted. After that, the substrate (PNPG, 1 mmol/L) was added to initiate the reaction. The reaction was incubated for 30 min at 37 °C before it was terminated by adding 1 mol/L Na2CO3 solution, and the optical density value was measured at 405 nm by using a Multimodel Plate Reader (Infinite 200). Each assay was performed three times.
The enzyme activity was measured at a fixed substrate concentration, in which a series of sample concentrations were introduced. The IC50 value was […] relative to a control assay with no inhibitor added.
The α-glucosidase inhibition assay was performed according to the method of Worawalai[32] with a slight modification. The α-glucosidase enzyme (0.1 U/mL) and substrate (1 mM p-nitrophenyl-α-D-glucopyranoside) were dissolved in 0.1 M phosphate buffer, pH 6.8. 10 μL of each synthesized analogue (1 mg/mL in DMSO) was pre-incubated with 8 μL of α-glucosidase at 37 °C for 10 min. A 100 μL of substrate solution was then added to the reaction mixture, which was further incubated at 37 °C for 30 min. Then, the reaction was terminated by adding 100 μL of 1 M Na2CO3 solution. Enzymatic activity was quantified by measuring the absorbance at 405 nm with a use of a Multimodel Plate Reader (Infinite 200). The percentage of inhibition was calculated by using [(A0 − A1)/A0] × 100%, where A0 was the absorbance without the sample, and A1 was the absorbance with the sample. The IC50 value was determined from a plot of the percentage of inhibition versus the sample concentration.
The compound `C[C@@H]1CC[C@]2(C(=O)O)CC[C@]3(C)C(=CCC4[C@@]5(C)CC[C@H](O)C(C)(C)C5CC[C@]43C)C2[C@H]1C` (stereo partly drawn) [UA, (1S,2R,4aS,6aS,6bR,10S,12aR) -10-hydroxy-1,2,6a,6b,9,9,12a-heptamethyl-1,2,3,4,4a,5,6,6a,6b,7,8,8a,9,10,11,12,12a,12b,13,14b-icosahydropicene-4a-carboxylic acid, reference compound] registered an IC50 of 5.08 ± 0.7 µM.

Take `C[C@@H]1CC[C@]2(C(=O)O)CC[C@]3(C)C(=CCC4[C@@]5(C)CC[C@H](OC(=O)c6ccc(Br)cc6F)C(C)(C)C5CC[C@]43C)C2[C@H]1C` (stereo partly drawn) [UA-04]: the IC50 came out at 3.94 ± 0.1 µM.

For the compound `C[C@@H]1CC[C@]2(C(=O)O)CC[C@]3(C)C(=CCC4[C@@]5(C)CC[C@H](OC(=O)c6ccco6)C(C)(C)C5CC[C@]43C)C2[C@H]1C` (stereo partly drawn) [UA-02], the concentration for half-maximal inhibition (IC50) was 2.51 ± 0.02 µM.

`C[C@@H]1CC[C@]2(C(=O)O)CC[C@]3(C)C(=CCC4[C@@]5(C)CC[C@H](OC(=O)c6ccccc6)C(C)(C)C5CC[C@]43C)C2[C@H]1C` (stereo partly drawn) [UA-01] registered an IC50 of 4.98 ± 0.21 µM.

In the case of `C[C@@H]1CC[C@]2(C(=O)O)CC[C@]3(C)C(=CCC4[C@@]5(C)CC[C@H](OC(=O)C(Cl)Cl)C(C)(C)C5CC[C@]43C)C2[C@H]1C` (stereo partly drawn) [UA-03], inhibition was half-maximal at 6.72 ± 0.33 µM (IC50).

Still in this assay, the particulars now being: UA ester derivatives (Table 1); enzyme 0.1 U/mL, PNPG 1 mM, pH 6.8, 37 °C; mean ± SD; read-out: IC50.
For “(1S,2R,4R,6aS,6bR,10S,12aR)-1,2,6a,6b,9,9,12a-heptamethyl-10-((4-methylpiperazine-1-carbonyl) oxy)-1,2,3,4,4a,5,6,6a,6b,7,8,8a,9,10,11,12,12a,12b,13,14b-icosahydropicene-4-carboxylic acid [UA-05]”, the half-inhibitory concentration (IC50) was determined as 15.2 ± 0.47 µM.

The assay is the same for the next values; noted with them: UA-O and analogues UA-O-a~UA-O-j (Table 2); enzyme 0.1 U/mL, PNPG 1 mM, pH 6.8, 37 °C; mean ± SD; read-out: IC50.
Turning to “(1S,2R,4R,6aS,6bR,12aR,Z)-1,2,6a,6b,9,9,12a-heptamethyl-10-oxo-11-((E) -3-phenylallylidene)-1,2,3,4,4a,5,6,6a,6b,7,8,8a,9,10,11,12,12a,12b,13,14b-icosahydropicene-4-carboxylic acid [UA-O-b]”, the IC50 was determined as 10.3 ± 0.55 µM.

For “(1S,2R,4R,6aS,6bR,12aR)-1,2,6a,6b,9,9,12a-heptamethyl-10-oxo-11-((Z)-4-(trifluoromethyl) benzylidene)-1,2,3,4,4a,5,6,6a,6b,7,8,8a,9,10,11,12,12a,12b,13,14b-icosahydropicene-4-carboxylic acid [UA-O-i]”, the IC50 amounted to 0.71 ± 0.04 µM.

As to “(1S,2R,4R,6aS,6bR,12aR)-11-((Z)-benzylidene)-1,2,6a,6b,9,9,12a-heptamethyl-10-oxo-1,2,3,4,4a,5,6,6a,6b,7,8,8a,9,10,11,12,12a,12b,13,14b-icosahydropicene-4-carboxylic acid [UA-O-a]”, the 50% inhibitory concentration (IC50) was found to be 1.17 ± 0.09 µM.

As for “(1S,2R,4R,6aS,6bR,12aR,Z)-1,2,6a,6b,9,9,12a-heptamethyl-10-oxo-11-((6-(trifluoromethyl) pyridin-3-yl) methylene)-1,2,3,4,4a,5,6,6a,6b,7,8,8a,9,10,11,12,12a,12b,13,14b-icosahydropicene-4-carboxylic acid [UA-O-f]”, the IC50 amounted to 4.87 ± 0.41 µM.

“(1S,2R,4R,6aS,6bR,12aR,Z)-11-((E)-3-(4-fluorophenyl) allylidene)-1,2,6a,6b,9,9,12a-heptamethyl-10-oxo-1,2,3,4,4a,5,6,6a,6b,7,8,8a,9,10,11,12,12a,12b,13,14b-icosahydropicene-4-carboxylic acid [UA-O-c]”: the 50% inhibitory concentration (IC50) turned out to be 7.49 ± 0.29 µM.

As to “(1S,2R,4R,6aS,6bR,12aR,Z)-1,2,6a,6b,9,9,12a-heptamethyl-10-oxo-11-(thiazol-2-ylmethylene)-1,2,3,4,4a,5,6,6a,6b,7,8,8a,9,10,11,12,12a,12b,13,14b-icosahydropicene-4-carboxylic acid [UA-O-h]”, the IC50 worked out at 3.32 ± 0.17 µM.

Take `C[C@@H]1CC[C@]2(C(=O)O)CC[C@]3(C)C(=CCC4[C@@]5(C)CCC(=O)C(C)(C)C5CC[C@]43C)C2[C@H]1C` (stereo partly drawn) [UA-O]: the IC50 is 2.47 ± 0.14 µM.

Regarding “(1S,2R,4R,6aS,6bR,12aR,Z)-1,2,6a,6b,9,9,12a-heptamethyl-10-oxo-11-(pyrazin-2-ylmethylene)-1,2,3,4,4a,5,6,6a,6b,7,8,8a,9,10,11,12,12a,12b,13,14b-icosahydropicene-4-carboxylic acid [UA-O-g]”, the IC50 came to 7.87 ± 0.34 µM.

As to “(1S,2R,4R,6aS,6bR,12aR)-1,2,6a,6b,9,9,12a-heptamethyl-11-((Z)-4-nitrobenzylidene)-10-oxo-1,2,3,4,4a,5,6,6a,6b,7,8,8a,9,10,11,12,12a,12b,13,14b-icosahydropicene-4-carboxylic acid [UA-O-d]”, the half-maximal inhibitory concentration (IC50) was found to be 1.49 ± 0.14 µM.

With “(1S,2R,4R,6aS,6bR,12aR)-1,2,6a,6b,9,9,12a-heptamethyl-11-((Z)-4-methylbenzylidene)-10-oxo-1,2,3,4,4a,5,6,6a,6b,7,8,8a,9,10,11,12,12a,12b,13,14b-icosahydropicene-4-carboxylic acid [UA-O-j]”, the 50% inhibitory concentration (IC50) came to 1.27 ± 0.2 µM.

Regarding “(1S,2R,4R,6aS,6bR,12aR)-11-((Z)-3-chlorobenzylidene)-1,2,6a,6b,9,9,12a-heptamethyl-10-oxo-1,2,3,4,4a,5,6,6a,6b,7,8,8a,9,10,11,12,12a,12b,13,14b-icosahydropicene-4-carboxylic acid [UA-O-e]”, the IC50 came to 3.22 ± 0.78 µM.

In another assay the target is T1, α-glucosidase from baker's yeast.
Assay: not given
Also noted: method as in PMID 26406581. To be noted: UA hydroxyl group oxidized into ketone; cited from earlier work.
On to `C[C@@H]1CC[C@]2(C(=O)O)CC[C@]3(C)C(=CCC4[C@@]5(C)CCC(=O)C(C)(C)C5CC[C@]43C)C2[C@H]1C` (stereo partly drawn) [UA-O], for which the IC50 is 2.47 ± 0.14 µM.
